For experiment [1], the system named is Euphorbia spp. As to the kind of experiment: Herbicidal action (Example 25). Particulars: preemergence. It counts as in vivo. In short, it runs like this: (§1)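 Herbicidal effect was judged by eye 2 to 6 weeks after pre- or postemergence spraying, scoring 0 for no damage through 100 for total kill. Cups were held in a greenhouse at 12°-25° C. or 18°-35° C. with thorough sprinkler irrigation.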

The subject of experiment [2] is Cynodon dactylon. As to the kind of experiment: Herbicidal action (Example 25). In kind it is in vivo. Particulars: preemergence. In short, it runs like this:
as §1

In experiment [3] the test system is Ipomoea spp. Put plainly: Herbicidal action (Example 25). In kind it is in vivo. The note with it: preemergence. In short, it runs like this: as §1
The subject of experiment [4] is Cyperus esculentus. Put plainly: Herbicidal action (Example 25). It counts as in vivo. Particulars: preemergence. The essentials: as §1
Experiment [5] concerns Alopecurus myosuroides. As to the kind of experiment: Herbicidal action (Example 25). In kind it is in vivo. The note with it: Alopecurus myosuroides, pre-emergence, read-out: percentage damage. The essentials:
as §1

Experiment [6] deals with Digitaria sanguinalis. As to the kind of experiment: Herbicidal action (Example 25). It counts as in vivo. Particulars: preemergence. In short, it runs like this: as §1
The subject of experiment [7] is Stellaria media. As to the kind of experiment: Herbicidal action (Example 25). In kind it is in vivo. Particulars: preemergence, 2.0 kg/ha. The essentials:
as §1

The subject of experiment [8] is Setaria faberii. As to the kind of experiment: Herbicidal action (Example 25). In kind it is in vivo. The note with it: preemergence. The essentials:
as §1

Experiment [9] deals with Sinapis alba. Put plainly: Herbicidal action (Example 25). It counts as in vivo. The note with it: pre-emergence, preemergence, 2.0 kg/ha, read-out: percentage damage. The essentials: as §1
In experiment [10] the test system is Sorghum halepense. As to the kind of experiment: Herbicidal action (Example 25). In kind it is in vivo. The note with it: preemergence. The essentials: as §1
Experiment [11] has as its system Poa annua. Put plainly: Herbicidal action (Example 25). In kind it is in vivo. The note with it: Poa annua, pre-emergence, preemergence, 2.0 kg/ha; read-out: percentage damage. The essentials: as §1
Experiment [12] deals with sugar beet. Put plainly: Sugar content of sugar beet in the open (Example 21). It counts as in vivo, Beta vulgaris sap. altissima (Kleinwanzleben KAWPoly). The note with it: 2.0 kg/ha; for Sugar content in freshly lifted beet, absolute: control 12.6 a; for Sugar content in freshly lifted beet, relative increase: control 100. The source says:
The crop plant was Beta vulgaris sap. altissima, variety "Kleinwanzleben KAWPoly". The soil was a sandy loam (1.5% organic substance, pH 5.7). Mineral fertilization totalled 400 kg N, 100 kg P2 O5, and 100 kg K2 O per hectare. For chemical weed control, 2.5 kg/ha of 1-phenyl-4-amino-5-chloropyridazone-(6) was applied before emergence of the beet plants. Aphids were controlled with dimethoate (O,O-dimethyl-S-(N-methylcarbonylmethyl)-phosphorus dithioate). Sowing took place on Mar. 10, 1975. The beets were lifted comparatively early on Sept. 29, 1975. The active ingredient was applied with the aid of spraying equipment with fine nozzles, mounted on a tractor. The amount of water used for dispersion purposes was 780 liters/ha. Treatment was effected on 2 different dates and on different plots:
I--the beet had 5 to 7 true leaves;
II--five weeks before harvesting, on the well developed plants. The sugar content was determined from fresh beets immediately after lifting.

Read-outs that look alike come from different tables or passages of the source.

In the case of `Cc1ccc(N2N=NC3C4CC(C5N=NC45)C32)cc1` (centres unmarked) [drawing 413], the percentage damage in experiment [1] (2.0 kg/ha) is 90 percentage damage; in experiment [1] (4.0 kg/ha), 100 percentage damage; in experiment [2] (2.0 kg/ha), 83 percentage damage; in experiment [2] (4.0 kg/ha), 100 percentage damage; in [3] (2.0 kg/ha) it was 78 percentage damage; in experiment [3] (4.0 kg/ha), 75 percentage damage. Moreover, the percentage damage in experiment [4] (2.0 kg/ha) is 0 percentage damage; in experiment [4] (4.0 kg/ha), 0 percentage damage; in [6] (2.0 kg/ha), 100 percentage damage; in [6] (4.0 kg/ha), 100 percentage damage. In experiment [5] (preemergence, 2.0 kg/ha), the pest or weed control at 2000 g/ha worked out at 40%. The pest or weed control at 4000 g/ha in experiment [5] (preemergence, 4.0 kg/ha) turned out to be 40%.

`Cc1ccc(N2N=NC3C4CC(C5N=NC45)C32)cc1` (centres unmarked) [drawing 418]: the percentage damage stood at 13 percentage damage in experiment [7]; 55 percentage damage in experiment [8] (2.0 kg/ha); 100 percentage damage in experiment [8] (4.0 kg/ha); 55 percentage damage in experiment [10] (2.0 kg/ha); 55 percentage damage in experiment [10] (4.0 kg/ha). Also, the pest or weed control at 2000 g/ha in experiment [9] amounted to 98%; in [11] it was 65%.

For the molecule `O=S(=O)(c1ccccc1)N1C2C3CC(C4N=NC34)C21` (centres unmarked) [drawing 414], the percentage damage is on record as 65 percentage damage in experiment [1] (2.0 kg/ha); 90 percentage damage in [1] (4.0 kg/ha); 90 percentage damage in [2] (2.0 kg/ha); 100 percentage damage in experiment [2] (4.0 kg/ha); 78 percentage damage in [3] (2.0 kg/ha); 0 percentage damage in [4] (2.0 kg/ha). In addition, the values for the percentage damage in experiment [4] (4.0 kg/ha), in experiment [6] (2.0 kg/ha) and in [6] (4.0 kg/ha) were 0 percentage damage, 68 percentage damage and 90 percentage damage, respectively. Further, the pest or weed control at 2000 g/ha in experiment [5] (preemergence, 2.0 kg/ha) was determined as 80%. Further, the pest or weed control at 4000 g/ha in [5] (preemergence, 4.0 kg/ha) is 80%.

On to `c1ccc(N2N=NC3C4CC(C5N=NC45)C32)cc1` (centres unmarked) [drawing 410], for which the percentage damage in [2] (2.0 kg/ha) was 70 percentage damage; in experiment [2] (4.0 kg/ha), 90 percentage damage; in experiment [3] (2.0 kg/ha) it was 50 percentage damage; in experiment [3] (4.0 kg/ha) it was 60 percentage damage; in experiment [4] (2.0 kg/ha), 27 percentage damage; in experiment [4] (4.0 kg/ha), 55 percentage damage. In experiment [6] (2.0 kg/ha), this molecule returned a percentage damage of 100 percentage damage. For the same molecule, in experiment [5] (preemergence, 4.0 kg/ha), the pest or weed control at 4000 g/ha stood at 85%.

Regarding `Brc1ccc(N2N=NC3C4CC(C5N=NC45)C32)cc1` (centres unmarked) [drawing 401], the “Sugar content in freshly lifted beet, absolute” value is 14.35% in experiment [12] (date I (20.05.75), letter = Duncan group) and 13.85% in experiment [12] (date II (21.08.75), letters = Duncan group). Moreover, the “Sugar content in freshly lifted beet, relative increase” value was determined as 113 in experiment [12] (date I) and 110 in [12] (date II).

As to `c1ccc(N2C3C4CC(C5N=NC45)C32)cc1` (centres unmarked) [drawing 411], the percentage damage in experiment [1] (2.0 kg/ha) is on record as 90 percentage damage; in experiment [1] (4.0 kg/ha) it was 100 percentage damage; in experiment [2] (2.0 kg/ha), 65 percentage damage; in [2] (4.0 kg/ha), 90 percentage damage; in experiment [3] (4.0 kg/ha), 29 percentage damage; in [4] (2.0 kg/ha), 45 percentage damage. For the same molecule, the results for the percentage damage in [4] (4.0 kg/ha), in experiment [6] (2.0 kg/ha) and in experiment [6] (4.0 kg/ha) were 60 percentage damage, 70 percentage damage and 100 percentage damage, respectively. Moreover, the pest or weed control at 2000 g/ha in [5] worked out at 70%. Further, the pest or weed control at 4000 g/ha in experiment [5] turned out to be 83%.
